Data as given in patent US20220290200A1, “GENETICALLY MODIFIED HOST CELLS PRODUCING GLYCOSYLATED CANNABINOIDS” (OCTARINE BIO IVS, priority 2019, published 2022).

What was measured:
[1] = Thermodynamic aqueous solubility assay in PBS; details: for Thermodynamic solubility: room temperature, PBS buffer pH 7.4, duplicate
Method: Alternatively, aqueous solubility was determined by a thermodynamic solubility assay as follows. 2.5 mg of test compound was weighed in a glass vial, 0.5 mL of phosphate buffered saline (pH=7.4) was added and the sample briefly vortexed. Samples were then incubated overnight at room temperature on a vial roller system to dissolve as much of the compound as possible into solution. Following incubation, the aqueous solutions were filtered in duplicate ([…]) and the filtrate diluted 1:1 with 100% methanol. Samples were further diluted where necessary and analyzed by HPLC. The concentration of compound in solution was determined by comparison to a standard curve made with authentic analytical standards.

[2] = tested on: S. cerevisiae strain BY4741; test: Toxicity of cannabinoids and cannabinoid glycosides in S. cerevisiae (final OD600); assay type: cell-based; details: 3% ethanol; for Final OD600 of S. cerevisiae: 72 h; for toxicity to yeast (final OD600 after 72 h): YP media, 2% glucose, 30° C., concentration range tested
Method: It is well known that cannabinoids are toxic to microbes, and it is thought that these compounds are produced by cannabis plants as a defense mechanism against infection. […] Product toxicity in microbial strains engineered to produce cannabinoids will hinder high-level production of these molecules, glycosylating these molecules can be used to detoxify them and facilitate higher production titers in engineered microbial strains. […] Cells were inoculated to a starting OD600 of 0.1 and incubated at 30° C. and 200 RPM and the final OD600 was measured after 72 h.

Caco-2 cells = test: Caco-2 bi-directional permeability assay; assay type: in vitro ADME, human; details: for efflux ratio compared to CBD / permeability coefficient (Papp) A to B and B to A compared to unmodified CBD: Caco-2, 10 μM; for efflux ratio compared to CBD / permeability coefficient (Papp) A to B and B to A compared to unmodified CBD / Mean recovery (%), Direction A→B / Mean Papp, Direction A→B / Mean recovery (%), Direction B→A / Mean Papp, Direction B→A: 120 min; for % recovery compared to CBD: Caco-2, both compartments; for Mean recovery (%), Direction A→B / Mean Papp, Direction A→B: apical to basolateral; for Mean Papp, Direction A→B / Mean Papp, Direction B→A: mean and standard deviation of duplicates; for Mean recovery (%), Direction B→A / Mean Papp, Direction B→A: basolateral to apical; for Efflux ratio: ratio of B−A and A−B permeabilities
Method: Intestinal permeability of cannabinoids and glycosylated cannabinoids was determined by measuring bi-directional transport across Caco-2 cell membranes. Caco-2 cells are used as an in vitro model of the human intestinal epithelium and permit assessment of the intestinal permeability of potential drugs. The test compound is added to either the apical or basolateral side of a confluent monolayer of Caco-2 cells and permeability is measured by monitoring the appearance of the test compound on the opposite side of the monolayer using LC-MS/QTOF. When performing a bi-directional assay, the efflux ratio (ER) is calculated from the ratio of B−A and A−B permeabilities. Caco-2 cells obtained from the ATCC are used between passage numbers 40-60. Cells are seeded onto Millipore Multiscreen Transwell plates at 1×10^5 cells/cm2. The cells are cultured in DMEM and media is changed every two or three days. On day 20 the permeability study is performed. Cell culture and assay incubations are carried out at 37° C. in an atmosphere of 5% CO2 with a relative humidity of 95%. On the day of the assay, the monolayers are prepared by rinsing both apical and basolateral surfaces twice with Hanks Balanced Salt Solution (HBSS) at the desired pH warmed to 37° C. Cells are then incubated with HBSS at the desired pH in both apical and basolateral compartments for 40 min to stabilize physiological parameters. 10 mM solutions of cannabinoids and cannabinoid glycosides are prepared in DMSO then diluted with assay buffer to give a final test compound concentration of 10 μM (final DMSO concentration of 1% v/v). The fluorescent integrity marker lucifer yellow is also included in the solution.
Analytical standards are prepared from test compound DMSO dilutions and transferred to buffer, maintaining a 1% v/v DMSO concentration. For assessment of A−B permeability, HBSS is removed from the apical compartment and replaced with test compound solution. The apical compartment insert is then placed into a companion plate containing fresh buffer (containing 1% v/v DMSO). For assessment of B−A permeability, HBSS is removed from the companion plate and replaced with test compound solution. Fresh buffer (containing 1% v/v DMSO) is added to the apical compartment insert, which is then placed into the companion plate. At 120 min the apical compartment inserts and the companion plates are separated and apical and basolateral samples diluted for analysis. Test compound permeability is assessed in duplicate. Compounds of known permeability characteristics are run as controls on each assay plate. Test and control compounds are quantified by LC-MS/QTOF as described above. The starting concentration (C0) is determined from the solution and the experimental recovery calculated from C0 and both apical and basolateral compartment concentrations. The integrity of the monolayer throughout the experiment is checked by monitoring lucifer yellow permeation using fluorometric analysis. The permeability coefficient (Papp) for each compound is calculated from the following equation: Papp=(dQ/dt)/(C0×A) Where dQ/dt is the rate of permeation of the drug across the cells, C0 is the donor compartment concentration at time zero and A is the area of the cell monolayer. C0 is obtained from analysis of the dosing solution. The efflux ratio (ER) is calculated from mean Papp values from A−B and B−A data. This is derived from: ER=Papp(B−A)/Papp(A−B). The % recovery is calculated from the following equation; % recovery=(Total compound in donor and receiver compartment at end of experiment)/(initial compound present)×100.
CBD glycosides were produced using glycosyl transferases and purified as described above. […] Low recovery of compound in a Caco-2 permeability assay can indicate problems with poor solubility, binding of the compound to the plate, metabolism by the Caco-2 cells or accumulation of the compound in the cell monolayer.

[3] = In vitro enzymatic cascade converting sucrose and CBD to CBD glycosides; assay type: biochemical; details: enzymes added: GmSuSy, Cs73Y
Text: In the previous examples, in vitro glycosyl transferase assays required the addition of an “activated” sugar (e.g. UDP-glucose), which is typically an extremely expensive reagent, furthermore, other activated sugars e.g. UDP-rhamnose are not available commercially and must be custom synthesized at high-cost and difficulty. […] To facilitate the low-cost production of cannabinoid glycosides not only with glucose, but with alternative sugars, an enzymatic cascade was set up to convert cannabinoids and the simple sugar sucrose into various cannabinoid glycosides. The cascade is divided into 3 steps, in step 1 sucrose and uridine diphosphate (UDP) is converted to UDP-glucose by GmSuSy (SEQ ID NO: 209, 210), additionally generating fructose as a bi-product. In step 2, UDP-glucose is interconverted to alternative UDP-sugars using a range of enzymes. For example, conversion of UDP-glucose to UDP-galactose by BsGa/E, multiple enzymes can also be used to produce UDP-sugars via other UDP-sugar intermediates. For example, conversion of UDP-glucose to UDP-glucuronic acid by AtUGDH1 combined with conversion of UDP-glucuronic acid to UDP-xylose by AtUXS3. In step 3, glycosyl transferases convert the activated sugar and a cannabinoid acceptor to the corresponding cannabinoid glycoside. For example, conversion of UDP-rhamnose and CBD to CBD-1′-O-β-D-rhamnoside (OB13) by Cs73Y (SEQ ID NO: 157, 158).
Enzymes were purified and the in vitro assay performed as described in Example 13 and the reaction mixture set up as shown in table 57. Enzymes and co-factors were added as required for each individual reaction. Samples were extracted and analyzed as stated above.

SMILES | solubility ([1]; phosphate buffered saline, pH 7.4, aqueous buffer, thermodynamic from solid) [mM] | Thermodynamic solubility [1] | Final OD600 of S. cerevisiae ([2]; 100 μM substrate added) | Final OD600 of S. cerevisiae ([2]; 200 μM substrate added) | Final OD600 of S. cerevisiae ([2]; 400 μM substrate added) | Final OD600 of S. cerevisiae ([2]; 800 μM substrate added) | toxicity to yeast (final OD600 after 72 h) [2] | efflux ratio compared to CBD (Caco-2 cells) | permeability coefficient (Papp) A to B and B to A compared to unmodified CBD (Caco-2 cells) | % recovery compared to CBD (Caco-2 cells) | Mean recovery (%), Direction A→B (Caco-2 cells) [%] | Mean Papp, Direction A→B (Caco-2 cells) | Mean recovery (%), Direction B→A (Caco-2 cells) [%] | Mean Papp, Direction B→A (Caco-2 cells) | Efflux ratio (Caco-2 cells) | % Conversion of CBD and sucrose to CBD glycoside [3] [%]
C=C(C)[C@@H]1CCC(C)=C[C@H]1c1c(O)cc(CCCCC)cc1O [CBD, cannabidiol, reference compound] | ≤ 0.0005 | Below Detection Limit | 9.3 | 8.2 | 6.7 | 4.7 | toxic to yeast | – | – | – | – | – | – | – | – | –
C=C(C)[C@@H]1CCC(C)=C[C@H]1c1c(O)cc(CCCCC)cc1O[C@@H]1O[C@H](CO)[C@@H](O)[C@H](O)[C@H]1O [OB1, CBD-1′-O-β-D-glucoside] | – | – | – | – | – | – | – | higher efflux ratio | significantly higher permeability coefficients in both directions | successively higher rates of recovery | 69.8 | 10.40 ± 0.31 10^−6 cms^−1 | 79.7 | 35.70 ± 0.34 10^−6 cms^−1 | 3.43 | –
C=C(C)[C@@H]1CCC(C)=C[C@H]1c1c(O[C@@H]2O[C@H](CO)[C@@H](O)[C@H](O)[C@H]2O)cc(CCCCC)cc1O[C@@H]1O[C@H](CO)[C@@H](O)[C@H](O)[C@H]1O [OB6, CBD-1′-O-β-D-glucosyl-3′-O-β-D-glucoside] | – | 11.4 ± 0.75 mM | 9.1 | 8.8 | 9.5 | 8.8 | non-toxic at the concentration range tested | higher than both CBD and OB1 | permeability coefficients were lower | successively higher rates of recovery | 91.9 | 0.10 ± 0.05 10^−6 cms^−1 | 87.8 | 0.44 ± 0.17 10^−6 cms^−1 | 4.31 | 91.3
